Reference: US5962502A, “Polyamidic acid derivatives with antigastrin activity, a method for their preparation, and their pharmaceutical use” (priority 1993, dated 1999)
Where “and” joins values, the source holds several entries; their conditions need not be identical. Identical values can stand only once. Blank lines part the entries; values can stand above or below the compound they belong to.

Key:
[1] = test system: acid secretion induced by pentagastrin; experiment: Acid secretion induced by pentagastrin in the anaesthetized rat; type: in vivo; conditions: iv, 1 h, I.V. bolus, pentagastrin 30 mcg/kg/h, read-out: Activity (ID50), inhibition of the acid secretion induced by pentagastrin
Description: The activity of the compounds of the invention against gastric secretion performed by means of a mechanism with an antigastrin effect, was examined in vivo in anaesthetized rats with the use of male animals weighing about 200 g. Gastric secretion was stimulated with pentagastrin and Lai's method [Gut 5, (1964), 327-341 ] was used, with slight modification.
After tracheotomy, the oesophagus and duodenum were cannulated. A tepid solution (37° C.) of 0.25 mM NaOH was perfused and was passed through the stomach by means of a peristaltic pump at a constant flow-rate of 1 ml/minute. After stabilization for 20 minutes, the stimulant, dissolved in a physiological solution, was perfused for 120 minutes at a dose of 30 mcg/kg/h, in a volume of 0.95 ml/hour. After perfusion for 60 minutes (the basal stimulation), the product under test was administered intravenously (I.V.) as a bolus and perfusion of the stimulant was continued for a further 60 minutes. The acid secretion was recorded continuously as a function of time.
The activity of the product was evaluated as the percentage reduction of secreted acidity after the administration of the product, in comparison with the basal acidity measured during the first 60 minutes of collection in the presence of pentagastrin alone.
The antagonistic compounds tested were administered in various doses so that an ID50, that is, the dose (in mg/kg I.V.) which could inhibit the effect of pentagastrin by 50%, could be calculated.

[2] = target: T1, gastrin receptors or type-B cholecystokinin (CCK-B) receptors (Oryctolagus cuniculus, UniProt P46627); experiment: Inhibition of the gastrin-induced increase of cytosolic calcium in rabbit gastric mucous-membrane cells (Fura 2); type: cell-based; conditions: for Ratio IC50 Binding cortex / IC50 (gastric mucous cells): binding values taken from Table 3; for IC50, inhibition of the increase of cytosolic calcium: rabbit gastric mucous cells enriched in parietal cells, gastrin 5×10^-8
T1 construct: Rabbit gastric mucous-membrane cells were prepared by conventional techniques; endogenous in cells; host or cells: freshly isolated rabbit gastric mucosal cells, enriched by elutriation to about 70% parietal cells
T1 sequence (P46627 1-452): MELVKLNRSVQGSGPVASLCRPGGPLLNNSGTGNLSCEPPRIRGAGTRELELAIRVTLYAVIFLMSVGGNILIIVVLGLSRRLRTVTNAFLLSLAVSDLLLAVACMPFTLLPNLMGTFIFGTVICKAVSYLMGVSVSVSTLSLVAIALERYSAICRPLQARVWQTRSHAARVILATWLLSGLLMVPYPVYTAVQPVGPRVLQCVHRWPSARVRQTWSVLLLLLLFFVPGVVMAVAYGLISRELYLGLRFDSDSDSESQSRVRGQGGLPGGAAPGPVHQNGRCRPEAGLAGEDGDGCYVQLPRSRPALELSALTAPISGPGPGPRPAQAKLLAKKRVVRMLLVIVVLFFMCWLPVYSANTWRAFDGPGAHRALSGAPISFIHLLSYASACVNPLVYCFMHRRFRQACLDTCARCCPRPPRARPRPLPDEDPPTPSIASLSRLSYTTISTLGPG
From the text: The parietal cells of the gastric mucous membrane are responsible for the secretion of HCl. They have specific membrane receptors which can be activated by gastrin and which have been defined as gastrin receptors or type-B cholecystokinin (CCK-B) receptors. Since it has been observed that the activation of the CCK-B receptors by gastrin leads to an increase in the cytosolic levels of calcium ions, a technique involving the measurement of the increase in intracellular calcium induced by gastrin in the presence and in the absence of the compounds of the invention was used as an index of the antigastrin activity of the compounds. Rabbit gastric mucous-membrane cells were prepared by conventional techniques with the use of collagenase and pronase as digestive enzymes. The cellular preparation obtained by the enzymatic digestion was composed of parietal cells, zymogen cells and mucous-membrane cells. […] The cells were then washed and resuspended in a saline solution buffered with HEPES containing, in mM: […] Each measurement was carried out on cells in suspension (0.8×10^6 /ml) at a thermostatically-controlled temperature of 37° C. and with constant magnetic stirring. The fluorescence was recorded with the use of a spectrofluorometer. The operative wavelengths were 340/380 nm for excitation and 505 nm for emission. […] Biol. Chem. 260 (1985), 3440]. […] The results thus obtained for some compounds of the invention are given in Table 4, which also gives an index derived from the ratio between the peripheral antigastrin activity just described and the displacement activity found in the test on binding to the guinea-pig cortex receptors described above.

central CCK-B receptor = target: T2, central CCK-B receptor (Cavia porcellus, UniProt H0VZC5); experiment: Inhibition of the binding of [3-H][N-methyl-N-leucine]CCK-8 to guinea-pig cortical membranes; conditions: guinea-pig cortical membranes, 150 minutes at 25° C.
T2 construct: Cerebral cortices of male white guinea-pigs were thus used; from tissue; host or cells: cerebral cortex membranes of male white guinea-pigs
T2 sequence (H0VZC5 1-426): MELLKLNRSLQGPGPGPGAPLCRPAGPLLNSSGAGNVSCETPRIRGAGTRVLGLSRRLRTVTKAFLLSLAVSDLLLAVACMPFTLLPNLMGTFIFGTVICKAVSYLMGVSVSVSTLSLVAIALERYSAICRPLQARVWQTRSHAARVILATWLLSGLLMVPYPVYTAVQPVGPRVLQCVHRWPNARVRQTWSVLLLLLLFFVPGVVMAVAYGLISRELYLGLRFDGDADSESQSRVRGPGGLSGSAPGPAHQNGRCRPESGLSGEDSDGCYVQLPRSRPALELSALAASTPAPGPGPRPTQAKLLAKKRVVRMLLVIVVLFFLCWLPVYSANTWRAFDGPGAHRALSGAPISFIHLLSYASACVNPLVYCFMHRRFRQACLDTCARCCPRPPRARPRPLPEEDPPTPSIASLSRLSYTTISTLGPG
Description: The ability of the compounds of the invention to interact with the central CCK-B receptor was evaluated with the use of non-sulphated [3-H] […] 225 (3) (1990), 1278-1286].
Cerebral cortices of male white guinea-pigs were thus used, according to the method mentioned above, so as to obtain a membrane content corresponding to about 300 mcg of proteins/ml. The membranes were incubated together with the radioactive tracer and the compounds under test for 150 minutes at 25° C. After the supernatant had been discarded, the radioactivity associated with the pellet was determined with a liquid scintillator. The specific binding was determined as the difference between the binding in the absence and in the presence of 5.10^-6 M CCK-8.

mouse = experiment: Black and White Box test in the mouse (anxiolytic activity); type: in vivo; conditions: for LIGHT TIME TOTAL TIME / LIGHT-DARK MOVEMENTS / MOV. DARK % TOTAL MOV. / TOTAL MOVEMENTS: 5 minutes
Description: It has recently been postulated that the central CCK-B receptor has an important role in anxiety. This is in accordance with studies also carried out in man, which have shown that the central CCK-B mechanisms have an important function in the mediation of panic attacks [Bradwejn, H. et al; J. Psychopharmacology 6 (1992), 345]. […] This experimental model, which was carried out according to Costall et al [Pharm. Biochem. Behav. 32 (1989), 777-785], used a box with dimensions of 45×21×21(h) cm divided into 2 compartments which communicated with one another through a 13×5 cm hole. The smaller compartment (1/3 of the total area) had black walls, whereas the larger had transparent walls and was illuminated by a lamp which was placed 20 cm above the box and supplied light at 20W. Under the floor there was an activity meter which recorded the movements performed by the animal in the individual compartments. The experiment was started by placing the animal in the centre of the illuminated box; as well as movements, the time which the animal spent in the dark and in the light areas and the number of movements between the 2 compartments were then recorded for 5 minutes. A control animal generally preferred to stay in the dark compartment where it felt better protected from an unusual environmental situation which put it in a state of anxiety. In this experimental model, a compound having anxiolytic activity decreased the % of movements into the dark in comparison with the total movements, increased the movements between the two light-dark compartments, and increased the % of time spent in the light in comparison with the total time.
The results obtained are shown in Table 7, where the activities obtained with compounds 9, 21 and 51 are given, tested in comparison with diazepam.

CCK-A = target: T3, CCK-A (Cavia porcellus, UniProt Q63931); experiment: Anti-CCK-A activity on guinea-pig gall bladder stimulated in vitro by CCK-8
T3 construct: A longitudinal strip of guinea-pig gall-bladder was put in a bath for isolated organs; from tissue; host or cells: guinea-pig gall bladder longitudinal strip
T3 sequence (Q63931 1-430): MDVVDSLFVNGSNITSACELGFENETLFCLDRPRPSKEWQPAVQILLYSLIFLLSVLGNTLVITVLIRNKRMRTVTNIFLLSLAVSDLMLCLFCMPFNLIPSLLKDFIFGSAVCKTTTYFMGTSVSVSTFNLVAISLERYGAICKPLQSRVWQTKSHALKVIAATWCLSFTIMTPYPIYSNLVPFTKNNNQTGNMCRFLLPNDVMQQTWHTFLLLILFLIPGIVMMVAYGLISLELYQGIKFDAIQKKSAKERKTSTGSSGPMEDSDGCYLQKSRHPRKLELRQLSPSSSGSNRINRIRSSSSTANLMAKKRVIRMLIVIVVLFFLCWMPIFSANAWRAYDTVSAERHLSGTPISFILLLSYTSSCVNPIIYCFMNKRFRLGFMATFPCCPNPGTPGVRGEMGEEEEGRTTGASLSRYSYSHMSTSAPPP
Description: The experimental model used was guinea-pig gall bladder stimulated in vitro by CCK-8, with the use of lorglumide as the reference standard. A longitudinal strip of guinea-pig gall-bladder was put in a bath for isolated organs in the presence of Krebs buffer at a temperature of 32° C., with continuous oxygenation with an oxygen-CO2 mixture (95-[…]). The isometric contractions were detected by means of a force transducer and recorded.

- Ratio IC50 Binding cortex / IC50 (gastric mucous cells) [2]: 2.4
- IC50, inhibition of the increase of cytosolic calcium [2]: 50 nM
- IC50 (central CCK-B receptor): 120 nM
Compound: CN(C(=O)CC[C@@H](NC(=O)c1cc(Cl)cc(Cl)c1)C(=O)N1CCC2(CCCC2)CC1)c1ccccc1C(=O)O [Compound 51]
- ED50 [1]: 9 mg/kg and 15.7 µmol/kg
- EFF. % VS CONTROL (LIGHT TIME TOTAL TIME) (mouse; 0.1 mg/kg IP): 12%
- EFF. % VS CONTROL (LIGHT-DARK MOVEMENTS) (mouse; 0.1 mg/kg IP): 19%
- EFF. % VS CONTROL (MOV. DARK % TOTAL MOV.) (mouse; 0.1 mg/kg IP): -12%
- LIGHT TIME TOTAL TIME (mouse; 0.1 mg/kg IP): 27.0%
- LIGHT-DARK MOVEMENTS (mouse; 0.1 mg/kg IP): 17.6
- MOV. DARK % TOTAL MOV. (mouse; 0.1 mg/kg IP): 61%
- TOTAL MOVEMENTS (mouse; 0.1 mg/kg IP): 472
- EFF. % VS CONTROL (LIGHT TIME TOTAL TIME) (mouse; 1.0 mg/kg IP): 48%
- EFF. % VS CONTROL (LIGHT-DARK MOVEMENTS) (mouse; 1.0 mg/kg IP): 34%
- EFF. % VS CONTROL (MOV. DARK % TOTAL MOV.) (mouse; 1.0 mg/kg IP): -14%
- LIGHT TIME TOTAL TIME (mouse; 1.0 mg/kg IP): 35.6%
- LIGHT-DARK MOVEMENTS (mouse; 1.0 mg/kg IP): 19.8
- MOV. DARK % TOTAL MOV. (mouse; 1.0 mg/kg IP): 59%
- TOTAL MOVEMENTS (mouse; 1.0 mg/kg IP): 484
- EFF. % VS CONTROL (LIGHT TIME TOTAL TIME) (mouse; 10.0 mg/kg IP): 16%
- EFF. % VS CONTROL (LIGHT-DARK MOVEMENTS) (mouse; 10.0 mg/kg IP): 37%
- EFF. % VS CONTROL (MOV. DARK % TOTAL MOV.) (mouse; 10.0 mg/kg IP): -10%
- LIGHT TIME TOTAL TIME (mouse; 10.0 mg/kg IP): 27.8%
- LIGHT-DARK MOVEMENTS (mouse; 10.0 mg/kg IP): 20.3
- MOV. DARK % TOTAL MOV. (mouse; 10.0 mg/kg IP): 62%
- TOTAL MOVEMENTS (mouse; 10.0 mg/kg IP): 436
- anxiolytic activity, result in words (mouse; Black and White Box test, IP): anxiolytic activity without sedative activity
- increase in the number of light-dark movements in comparison with the controls (mouse; summary over doses): 20-30%

- Ratio IC50 Binding cortex / IC50 (gastric mucous cells) [2]: 6.3
- CCK-B-antagonistic activity IC50 (II) ([2]; data taken from Table 4 (rabbit gastric mucous cells), reprinted in Table 6): 380 nM
- IC50, inhibition of the increase of cytosolic calcium [2]: 380 nM
- Ratio I/II (CCK-A IC50 / CCK-B IC50) (CCK-A; gall bladder IC50 over gastric mucous cells IC50): 35.5
- IC50 (CCK-A; guinea-pig gall bladder in vitro, CCK-8 10 ng/ml, read-out: CCK-A-antagonistic activity IC50 (I)): 13500 nM
Compound: O=C(O)CC[C@@H](NC(=O)c1cc(Cl)cc(Cl)c1)C(=O)N1CCC2(CCCC2)CC1 [CR 2194, (R)-5-(8-azaspiro[4.5]decan-8-yl)-4-(3,5-dichloro-benzoylamino)-5-oxopentanoic acid, reference compound]
- ED50 [1]: 11 mg/kg and 24.9 µmol/kg

- Ratio IC50 Binding cortex / IC50 (gastric mucous cells) [2]: 6.0
- IC50, inhibition of the increase of cytosolic calcium [2]: 30 nM
- IC50 (central CCK-B receptor): 180 nM
Compound: CN(Cc1ccccc1)C(=O)[C@@H](CCC(=O)O)NC(=O)CC[C@@H](NC(=O)c1cc(Cl)cc(Cl)c1)C(=O)N1CCC2(CCCC2)CC1 [Compound 38]
- ED50 [1]: 7 mg/kg and 10.4 µmol/kg
